In article PMC12914920, “Novel glycine amides, semicarbazides and fluoroallylamines as inhibitors of the amine oxidase vascular adhesion protein-1 (VAP-1)” (RSC Medicinal Chemistry, 2026):

Target: T1, VAP-1 in human plasma (Homo sapiens, UniProt Q16853)
T1 construct: from tissue; host or cells: human whole plasma from donated blood (Münster University Hospital)
T1 sequence (Q16853 27-763 limits assumed): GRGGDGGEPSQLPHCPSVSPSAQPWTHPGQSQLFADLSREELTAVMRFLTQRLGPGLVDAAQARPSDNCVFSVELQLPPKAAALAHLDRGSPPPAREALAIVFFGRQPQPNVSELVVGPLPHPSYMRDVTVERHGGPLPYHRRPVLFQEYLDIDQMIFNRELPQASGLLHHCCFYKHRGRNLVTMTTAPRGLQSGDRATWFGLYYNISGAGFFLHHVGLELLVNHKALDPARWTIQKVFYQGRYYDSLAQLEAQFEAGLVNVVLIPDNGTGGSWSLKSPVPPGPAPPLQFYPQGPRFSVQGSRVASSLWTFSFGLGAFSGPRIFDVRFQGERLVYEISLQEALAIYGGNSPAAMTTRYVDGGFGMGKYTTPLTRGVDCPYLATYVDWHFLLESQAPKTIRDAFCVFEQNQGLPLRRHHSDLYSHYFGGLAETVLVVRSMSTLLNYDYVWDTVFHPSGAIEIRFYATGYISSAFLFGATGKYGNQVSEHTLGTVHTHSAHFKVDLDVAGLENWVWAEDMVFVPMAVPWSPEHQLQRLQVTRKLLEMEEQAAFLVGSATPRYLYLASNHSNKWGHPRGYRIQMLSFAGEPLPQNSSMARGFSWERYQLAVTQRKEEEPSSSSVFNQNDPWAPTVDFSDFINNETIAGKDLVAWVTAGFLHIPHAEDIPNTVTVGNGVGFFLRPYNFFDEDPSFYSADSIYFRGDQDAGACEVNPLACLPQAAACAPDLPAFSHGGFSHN
Assay: Inhibition of VAP-1 activity in human whole plasma
Format: biochemical
Settings: 15 min pre-incubation of enzyme and inhibitor

IC50: 320 nM
SMILES: N#Cc1ccc(-c2nnn(Cc3cccc(CNC(=O)CN)c3)n2)cc1 [Compound 63]
